Where two headings read alike, the source gives them in different places.
Assays:
Assay type in all cases: cell-based
[1] = molecular target: T1, human muscarinic M1 receptor (Homo sapiens, UniProt P11229); test: Alphascreen Surefire phospho-ERK1/2 functional assay, M1; conditions: for EC50: phospho-ERK1/2, read-out: pEC50 M1 (converted); for Emax: CHO
T1 construct: expressed in transfected cells
T1 sequence (P11229 1-460): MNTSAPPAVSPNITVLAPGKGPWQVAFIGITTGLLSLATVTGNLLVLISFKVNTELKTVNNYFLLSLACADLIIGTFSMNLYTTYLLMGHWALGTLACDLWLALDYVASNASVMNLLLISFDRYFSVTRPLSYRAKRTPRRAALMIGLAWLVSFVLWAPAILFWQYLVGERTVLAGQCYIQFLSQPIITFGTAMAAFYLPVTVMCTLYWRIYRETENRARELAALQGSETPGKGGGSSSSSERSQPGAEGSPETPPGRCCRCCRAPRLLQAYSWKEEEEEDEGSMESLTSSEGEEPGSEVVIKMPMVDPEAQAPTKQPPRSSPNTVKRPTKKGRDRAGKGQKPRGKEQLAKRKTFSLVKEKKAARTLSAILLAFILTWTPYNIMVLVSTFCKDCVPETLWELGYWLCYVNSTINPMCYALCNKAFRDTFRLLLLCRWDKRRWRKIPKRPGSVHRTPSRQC
Description: (§1) ERK1/2 phosphorylation is a downstream consequence of both Gq/11 and Gi/o protein coupled receptor activation, making it highly suitable for the assessment of M1, M3 (Gq/11 coupled) and M2, M4 receptors (Gi/o coupled), rather than using different assay formats for different receptor subtypes. CHO cells stably expressing the human muscarinic M1, M2, M3 or M4 receptor were plated (25K/well) onto 96-well tissue culture plates in MEM-alpha+10% dialysed FBS. Once adhered, cells were serum-starved overnight. Agonist stimulation was performed by the addition of 5 μL agonist to the cells for 5 min (37° C.). Media was removed and 50 μL of lysis buffer added. After 15 min, a 4 μL sample was transferred to 384-well plate and 7 μL of detection mixture added. Plates were incubated for 2 h with gentle agitation in the dark and then read on a PHERAstar plate reader.
(§2) pEC50 and Emax figures were calculated from the resulting data for each receptor subtype.

[2] = molecular target: T2, human muscarinic M2 receptor (Homo sapiens, UniProt P08172); test: Alphascreen Surefire phospho-ERK1/2 functional assay, M2; conditions: for EC50: CHO cells stably expressing human M2, phospho-ERK1/2, read-out: pEC50 M2 (converted); for Emax: CHO, read-out: % Emax cf. ACh, M2
T2 construct: expressed in transfected cells
T2 sequence (P08172 1-466): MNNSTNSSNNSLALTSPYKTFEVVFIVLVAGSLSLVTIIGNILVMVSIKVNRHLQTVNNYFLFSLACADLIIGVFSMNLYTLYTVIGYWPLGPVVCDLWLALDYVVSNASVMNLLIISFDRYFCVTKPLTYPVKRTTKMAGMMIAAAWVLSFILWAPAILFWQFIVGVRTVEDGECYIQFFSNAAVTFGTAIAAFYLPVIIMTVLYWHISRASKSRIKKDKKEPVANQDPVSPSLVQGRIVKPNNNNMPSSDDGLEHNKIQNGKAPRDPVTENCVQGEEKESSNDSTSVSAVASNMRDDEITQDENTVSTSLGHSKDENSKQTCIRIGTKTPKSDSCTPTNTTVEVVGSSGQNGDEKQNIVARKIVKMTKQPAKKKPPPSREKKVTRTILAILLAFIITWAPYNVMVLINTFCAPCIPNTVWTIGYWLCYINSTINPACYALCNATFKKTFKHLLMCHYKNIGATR
Description: as §1, §2

[3] = molecular target: T3, human muscarinic M4 receptor (Homo sapiens, UniProt P08173); test: Alphascreen Surefire phospho-ERK1/2 functional assay, M4; conditions: for EC50: phospho-ERK1/2, read-out: pEC50 M4 (converted); for Emax: CHO
T3 construct: expressed in transfected cells
T3 sequence (P08173 1-479): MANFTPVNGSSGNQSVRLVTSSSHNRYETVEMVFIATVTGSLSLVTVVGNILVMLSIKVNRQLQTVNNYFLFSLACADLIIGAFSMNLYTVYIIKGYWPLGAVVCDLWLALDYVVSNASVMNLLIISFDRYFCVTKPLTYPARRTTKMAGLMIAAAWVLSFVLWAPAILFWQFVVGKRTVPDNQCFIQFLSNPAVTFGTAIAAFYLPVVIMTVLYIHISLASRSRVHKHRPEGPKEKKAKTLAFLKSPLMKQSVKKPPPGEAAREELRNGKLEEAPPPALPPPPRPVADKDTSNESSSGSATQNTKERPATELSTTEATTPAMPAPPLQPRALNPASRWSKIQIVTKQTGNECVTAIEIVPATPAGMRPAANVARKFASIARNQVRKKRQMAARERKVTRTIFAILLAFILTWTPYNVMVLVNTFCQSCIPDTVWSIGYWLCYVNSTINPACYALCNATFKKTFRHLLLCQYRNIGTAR
Description: as §1, §2

[4] = molecular target: T4, human muscarinic M3 receptor (Homo sapiens, UniProt P20309); test: Alphascreen Surefire phospho-ERK1/2 functional assay, M3; conditions: for EC50: CHO cells stably expressing human M3, phospho-ERK1/2, read-out: pEC50 M3 (converted); for Emax: CHO, read-out: % Emax cf. ACh, M3
T4 construct: expressed in transfected cells
T4 sequence (P20309 whole entry): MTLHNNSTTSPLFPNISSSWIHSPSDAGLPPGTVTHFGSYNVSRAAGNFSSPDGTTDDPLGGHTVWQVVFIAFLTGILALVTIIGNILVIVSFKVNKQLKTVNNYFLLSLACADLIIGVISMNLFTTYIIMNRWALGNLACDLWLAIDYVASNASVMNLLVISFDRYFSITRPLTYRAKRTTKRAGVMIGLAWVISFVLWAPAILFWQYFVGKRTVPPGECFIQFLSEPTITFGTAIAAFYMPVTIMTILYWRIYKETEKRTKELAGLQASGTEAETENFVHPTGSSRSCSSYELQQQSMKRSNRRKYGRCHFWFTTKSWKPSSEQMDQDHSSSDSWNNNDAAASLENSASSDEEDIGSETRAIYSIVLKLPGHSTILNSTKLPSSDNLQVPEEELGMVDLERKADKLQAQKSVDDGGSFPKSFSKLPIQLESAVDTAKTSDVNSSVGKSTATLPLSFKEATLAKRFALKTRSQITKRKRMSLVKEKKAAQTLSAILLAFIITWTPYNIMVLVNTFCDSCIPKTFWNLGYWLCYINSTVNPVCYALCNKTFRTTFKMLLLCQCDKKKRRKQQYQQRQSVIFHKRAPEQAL
Description: as §1, §2

[5] = CHO cells stably expressing human M1
[6] = CHO cells stably expressing human M4
[7] = read-out: % Emax cf. ACh, M1, CHO cells stably expressing human M1, relative to ACh
[8] = read-out: % Emax cf. ACh, M4, CHO cells stably expressing human M4, relative to ACh

| SMILES | EC50 [1, 5] | Emax ([1]; read-out: % Emax cf. ACh, M1) | EC50 [2] | Emax [2] | EC50 [3, 6] | Emax ([3]; read-out: % Emax cf. ACh, M4) | EC50 [4] | Emax [4] | Emax [1, 7] | Emax [3, 8] | % Emax cf. ACh, M1 ([1]; CHO cells stably expressing human M1, relative to ACh) | % Emax cf. ACh, M4 ([3]; CHO cells stably expressing human M4, relative to ACh, listed as 1 - Isomer 2) |
| --- | --- | --- | --- | --- | --- | --- | --- | --- | --- | --- | --- | --- |
| C#CCOC(=O)N1C2CCC1CC(N1CCC(C(=O)NC3(C)CCC3)CC1)C2 (single isomer, unassigned) [Example 2 - Isomer 1, prop-2-yn-1-yl 3-{4-[(1-methylcyclobutyl)carbamoyl]piperidin-1-yl}-8-azabicyclo[3.2.1]octane-8-carboxylate] | 331 nM |  | > 20 µM | 14% | > 20000 nM |  | > 20 µM | 7% | 94% | 11% |  |  |
| CCOC(=O)N1C2CCC1CC(N1CCC(C(=O)NC3(C)CCC3)CC1)C2 (single isomer, unassigned) [Example 1 - Isomer 2, ethyl 3-{4-[(1-methylcyclobutyl)carbamoyl]piperidin-1-yl}-8-azabicyclo[3.2.1]octane-8-carboxylate] | 41.7 nM |  | > 20 µM | 0% | 170 nM |  | > 20 µM | 18% |  |  | 102% | 98% |
| CCOC(=O)N1CC2CC(N3CCC(C(=O)NC4(C)CCC4)CC3)CC2C1 (mixture of isomers) [Example 8 - mixture of diastereomers, ethyl 5-{4-[(1-methylcyclobutyl)carbamoyl]piperidin-1-yl}hexahydrocyclopenta[c]pyrrole-2(1H)-carboxylate] | 110 nM | 118% | > 20 µM | 5% | 1700 nM | 29% | > 20 µM | 8% |  |  |  |  |
| CC#CCOC(=O)N1C2CCC1CC(N1CCC(C(=O)NC3(C)CCC3)CC1)C2 (single isomer, unassigned) [Example 3 - Isomer 2, but-2-yn-1-yl 3-{4-[(1-methylcyclobutyl)carbamoyl]piperidin-1-yl}-8-azabicyclo[3.2.1]octane-8-carboxylate] | 363 nM |  | > 20 µM | 10% | 851 nM |  | > 20 µM | 2% | 109% | 65% |  |  |
| CCOC(=O)N1CC2CC(N3CCC(C(=O)NC4(C)CCC4)CC3)CC1C2 (mixture of isomers) [Example 7 - mixture of diastereomers, ethyl 3-{4-[(1-methylcyclobutyl)carbamoyl]piperidin-1-yl}-6-azabicyclo[3.2.1]octane-6-carboxylate] | 55 nM | 127% | > 20 µM | 10% | 447 nM | 81% | > 20 µM | 4% |  |  |  |  |

More lines, main results first:

| EC50 [1, 5] | Emax ([1]; read-out: % Emax cf. ACh, M1) | EC50 [2] | Emax [2] | EC50 [3, 6] | Emax ([3]; read-out: % Emax cf. ACh, M4) | EC50 [4] | Emax [4] | SMILES | Emax [1, 7] | Emax [3, 8] | % Emax cf. ACh, M1 ([1]; CHO cells stably expressing human M1, relative to ACh) | % Emax cf. ACh, M4 ([3]; CHO cells stably expressing human M4, relative to ACh, listed as 1 - Isomer 2) |
| --- | --- | --- | --- | --- | --- | --- | --- | --- | --- | --- | --- | --- |
| 67.6 nM | 107% | > 20 µM | 9% | 170 nM | 111% | > 20 µM | 12% | [2H]C([2H])([2H])C1(NC(=O)C2CCN(C3CC4(CCN(C(=O)OCC)C4)C3)CC2)CCC1 (single isomer, unassigned) [Example 21 - Isomer 2, ethyl 2-(4-{[1-(1,1,1-trideuteromethyl)cyclobutyl]carbamoyl}piperidin-1-yl)-6-azaspiro[3.4]octane-6-carboxylate] |  |  |  |  |
| 53.7 nM | 108% | > 20 µM | 23% | 174 nM | 83% | > 20 µM | 17% | [2H]C([2H])([2H])COC(=O)N1CCC2(CC(N3CCC(C(=O)NC4(C)CCC4)CC3)C2)C1 (single isomer, unassigned) [Example 25 - Isomer 2, (2,2,2-trideutero)ethyl 2-{4-[(1-methylcyclobutyl)carbamoyl]piperidin-1-yl}-6-azaspiro[3.4]octane-6-carboxylate] |  |  |  |  |
| 55 nM | 107% | > 20 µM | 18% | 186 nM | 91% | > 20 µM | 13% | [2H]C([2H])([2H])C([2H])([2H])OC(=O)N1CCC2(CC(N3CCC(C(=O)NC4(C)CCC4)CC3)C2)C1 (single isomer, unassigned) [Example 29 - Isomer 2, (1,1,2,2,2-pentadeutero)ethyl 2-{4-[(1-methylcyclobutyl)carbamoyl]piperidin-1-yl}-6-azaspiro[3.4]octane-6-carboxylate] |  |  |  |  |
| 155 nM | 93% | > 20 µM | 10% | 339 nM | 42% | > 20 µM | 3% | CC#CCOC(=O)N1CCC2(CC(N3CCC(C(=O)NC4(C)CCC4)CC3)C2)C1 (mixture of isomers) [Example 10 - mixture of diastereomers, but-2-yn-1-yl 2-{4-[(1-methylcyclobutyl)carbamoyl]piperidin-1-yl}-6-azaspiro[3.4]octane-6-carboxylate] |  |  |  |  |
| 35.5 nM | 141% | > 20 µM | 8% | 53.7 nM | 49% | > 20 µM | 78% | CCOC(=O)N1CC2(CCC(N3CCC(C(=O)NC4(C)CCC4)CC3)C2)C1 (racemic) [Example 12 - racemic, ethyl 6-{4-[(1-methylcyclobutyl)carbamoyl]piperidin-1-yl}-2-azaspiro[3.4]octane-2-carboxylate] |  |  |  |  |
| 15.8 nM | 139% | > 20 µM | 7% | 52.5 nM | 44% | > 20 µM | 39% | C#CCOC(=O)N1CC2(CCC(N3CCC(C(=O)NC4(C)CCC4)CC3)C2)C1 (racemic) [Example 13 - racemic, prop-2-yn-1-yl 6-{4-[(1-methylcyclobutyl)carbamoyl]piperidin-1-yl}-2-azaspiro[3.4]octane-2-carboxylate] |  |  |  |  |
